From patent publication US20250136578A1 (Kolm Therapeutics Inc., priority 2023, published 2025)
Read-outs that look alike come from different tables or passages of the source.

Legend:
AR / CBP ternary complex = AR / CBP ternary complex (Homo sapiens, UniProt P10275+Q92793); test: Ternary complex formation assay (sandwich ELISA, AR capture, CBP antibody detection) in VCaP cell lysates; assay type: cell-based
How it was run: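 Sandwich ELISA: plates were coated with anti-AR antibody (AR441) and given lysates of VCaP cells treated 1.5 h with bifunctional compound in charcoal-stripped serum. Co-captured CBP or p300 was probed with rabbit mAbs and HRP secondary. Chemifluorescent signal (ex 570/em 585) was read at 0, 5 and 15 min.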

VCaP cells = test: VCaP growth inhibition assay (CTG); assay type: cell-based; conditions: Homo sapiens, 216 h, 30 pM R1881, 9 days
How it was run: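 Growth was measured by CTG luminescence after a 9-day exposure of VCaP cells to compound (final 10 fM–100 nM, fivefold steps) in the presence of 30 pM final R1881, in phenol red-free DMEM/5% CSS. IC50 values were derived by nonlinear 4-parameter regression of RLU against concentration.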

[1] = treated 1.5 hours, rabbit CBP or p300 antibody detection, average, read-out: Average Ternary Complex

AR / CBP ternary complex, sequence (P10275 whole entry): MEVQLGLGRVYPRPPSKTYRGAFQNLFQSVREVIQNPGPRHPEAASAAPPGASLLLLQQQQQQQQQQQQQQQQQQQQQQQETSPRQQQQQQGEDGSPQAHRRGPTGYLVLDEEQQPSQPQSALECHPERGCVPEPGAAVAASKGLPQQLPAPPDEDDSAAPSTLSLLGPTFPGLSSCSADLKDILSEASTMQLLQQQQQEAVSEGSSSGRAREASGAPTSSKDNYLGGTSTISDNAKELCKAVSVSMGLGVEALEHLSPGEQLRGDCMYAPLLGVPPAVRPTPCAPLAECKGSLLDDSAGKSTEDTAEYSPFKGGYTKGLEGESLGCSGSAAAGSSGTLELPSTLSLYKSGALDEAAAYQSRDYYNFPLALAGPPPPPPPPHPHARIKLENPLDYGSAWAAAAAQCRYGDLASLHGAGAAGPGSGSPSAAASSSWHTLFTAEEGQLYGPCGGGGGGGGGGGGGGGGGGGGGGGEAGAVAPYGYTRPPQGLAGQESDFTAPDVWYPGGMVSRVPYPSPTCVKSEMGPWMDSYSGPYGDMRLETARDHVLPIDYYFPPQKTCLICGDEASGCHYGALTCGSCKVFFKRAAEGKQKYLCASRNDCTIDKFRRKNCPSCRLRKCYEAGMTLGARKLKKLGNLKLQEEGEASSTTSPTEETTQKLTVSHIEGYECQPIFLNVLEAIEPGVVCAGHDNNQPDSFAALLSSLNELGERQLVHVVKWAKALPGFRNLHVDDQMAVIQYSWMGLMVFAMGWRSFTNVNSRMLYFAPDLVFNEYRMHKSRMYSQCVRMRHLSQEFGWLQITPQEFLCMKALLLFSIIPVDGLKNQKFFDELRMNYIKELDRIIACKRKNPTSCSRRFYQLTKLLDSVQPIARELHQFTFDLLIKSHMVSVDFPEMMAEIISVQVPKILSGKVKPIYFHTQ
AR / CBP ternary complex, sequence (Q92793 2-2442): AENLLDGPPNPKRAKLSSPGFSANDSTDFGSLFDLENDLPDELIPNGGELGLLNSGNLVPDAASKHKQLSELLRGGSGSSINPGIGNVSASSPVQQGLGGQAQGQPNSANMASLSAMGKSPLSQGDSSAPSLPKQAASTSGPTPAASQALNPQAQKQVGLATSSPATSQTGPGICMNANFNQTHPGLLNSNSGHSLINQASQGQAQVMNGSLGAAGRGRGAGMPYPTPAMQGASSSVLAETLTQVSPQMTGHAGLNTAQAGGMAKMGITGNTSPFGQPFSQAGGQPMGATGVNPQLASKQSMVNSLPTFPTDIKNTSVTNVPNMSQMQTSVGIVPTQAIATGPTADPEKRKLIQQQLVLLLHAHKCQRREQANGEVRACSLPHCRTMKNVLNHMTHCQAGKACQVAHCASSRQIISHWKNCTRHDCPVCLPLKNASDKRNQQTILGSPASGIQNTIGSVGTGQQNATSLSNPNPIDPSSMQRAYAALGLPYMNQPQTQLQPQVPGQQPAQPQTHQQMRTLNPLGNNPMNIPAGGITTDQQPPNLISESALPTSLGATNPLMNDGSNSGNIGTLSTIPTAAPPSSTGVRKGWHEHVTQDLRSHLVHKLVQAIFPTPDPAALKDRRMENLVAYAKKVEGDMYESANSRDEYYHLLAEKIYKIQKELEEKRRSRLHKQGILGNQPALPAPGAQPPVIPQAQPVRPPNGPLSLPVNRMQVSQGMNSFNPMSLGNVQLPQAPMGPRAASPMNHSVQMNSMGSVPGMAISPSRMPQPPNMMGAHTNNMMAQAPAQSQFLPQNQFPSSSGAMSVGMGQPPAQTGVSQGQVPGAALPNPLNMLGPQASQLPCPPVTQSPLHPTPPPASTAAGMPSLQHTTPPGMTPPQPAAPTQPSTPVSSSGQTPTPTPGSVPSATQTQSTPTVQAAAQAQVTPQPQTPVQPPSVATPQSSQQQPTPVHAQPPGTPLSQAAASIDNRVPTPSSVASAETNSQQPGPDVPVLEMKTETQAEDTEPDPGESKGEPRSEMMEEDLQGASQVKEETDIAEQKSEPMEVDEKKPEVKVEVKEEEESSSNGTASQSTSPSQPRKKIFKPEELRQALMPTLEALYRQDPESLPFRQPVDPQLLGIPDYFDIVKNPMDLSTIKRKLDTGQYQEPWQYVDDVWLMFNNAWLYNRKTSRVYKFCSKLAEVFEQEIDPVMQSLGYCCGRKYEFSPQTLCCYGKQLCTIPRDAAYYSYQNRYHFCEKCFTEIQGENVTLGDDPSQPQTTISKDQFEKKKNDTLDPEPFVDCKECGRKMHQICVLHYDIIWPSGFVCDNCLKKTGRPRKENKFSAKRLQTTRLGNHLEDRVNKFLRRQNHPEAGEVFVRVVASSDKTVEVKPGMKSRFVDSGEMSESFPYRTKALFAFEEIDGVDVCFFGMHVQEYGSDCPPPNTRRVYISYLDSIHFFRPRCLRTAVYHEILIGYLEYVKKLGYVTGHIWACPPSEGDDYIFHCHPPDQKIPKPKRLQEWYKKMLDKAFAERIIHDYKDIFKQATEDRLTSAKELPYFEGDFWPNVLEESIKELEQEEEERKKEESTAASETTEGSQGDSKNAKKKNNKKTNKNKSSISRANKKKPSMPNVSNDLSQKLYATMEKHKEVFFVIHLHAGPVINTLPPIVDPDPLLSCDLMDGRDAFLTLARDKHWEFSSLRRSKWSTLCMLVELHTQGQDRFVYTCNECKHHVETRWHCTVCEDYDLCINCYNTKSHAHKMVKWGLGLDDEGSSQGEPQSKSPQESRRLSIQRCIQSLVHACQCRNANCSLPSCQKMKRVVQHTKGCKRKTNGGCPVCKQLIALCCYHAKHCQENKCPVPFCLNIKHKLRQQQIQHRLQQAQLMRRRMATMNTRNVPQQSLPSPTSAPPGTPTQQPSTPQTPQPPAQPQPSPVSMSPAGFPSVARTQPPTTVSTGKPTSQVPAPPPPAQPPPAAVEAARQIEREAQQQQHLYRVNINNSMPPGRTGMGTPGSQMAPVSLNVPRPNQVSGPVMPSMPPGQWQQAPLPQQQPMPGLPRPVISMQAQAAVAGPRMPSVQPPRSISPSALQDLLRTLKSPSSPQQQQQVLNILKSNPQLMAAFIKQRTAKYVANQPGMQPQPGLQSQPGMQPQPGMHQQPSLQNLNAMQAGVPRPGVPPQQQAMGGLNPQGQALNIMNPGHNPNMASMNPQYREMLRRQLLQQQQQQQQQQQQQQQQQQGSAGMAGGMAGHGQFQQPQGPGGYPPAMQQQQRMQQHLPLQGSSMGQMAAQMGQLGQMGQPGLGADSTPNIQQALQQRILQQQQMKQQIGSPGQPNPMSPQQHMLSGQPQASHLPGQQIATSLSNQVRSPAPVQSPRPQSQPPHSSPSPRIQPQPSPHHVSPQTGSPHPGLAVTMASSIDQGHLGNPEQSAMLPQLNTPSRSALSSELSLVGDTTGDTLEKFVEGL

| Compound | IC50 (VCaP cells) | EC50 (AR / CBP ternary complex; [1]) | EC50 (AR / CBP ternary complex; read-out: Average Ternary Complex, treated 1.5 hours, rabbit CBP or p300 antibody detection) |
| --- | --- | --- | --- |
| CC(=O)N1CCc2c(c(N3CCCc4cc(-c5cnn(C)c5)c(C(F)F)cc43)nn2C2CCC3(CC2)CC(N2CCN(c4ccc(C(=O)N[C@H]5CC[C@H](Oc6ccc(C#N)c(Cl)c6)CC5)nn4)CC2)C3)C1 (stereo partly shown) [Compound 208, 6-[4-[7-[5-acetyl-3-[7-(difluoromethyl)-6-(1-methylpyrazol-4-yl)-3,4-dihydro-2H-quinolin-1-yl]-6,7-dihydro-4H-pyrazolo[4,3-c]pyridin-1-yl]spiro[3.5]nonan-2-yl]piperazin-1-yl]-N-[4-(3-chloro-4-cyano-phenoxy)cyclohexyl]pyridazine-3-carboxamide] | ≤ 0.1 nM |  | < 1 nM |
| CC(=O)N1CCc2c(c(-c3cccc4cc(C)ncc34)nn2C2CCN(CC3CCN(c4ccc(C(=O)N[C@H]5CC[C@H](Oc6ccc(C#N)c(Cl)c6)CC5)nn4)CC3)CC2)C1 [Compound 122, -[4-[[4-[5-acetyl-3-(3-methyl-8-isoquinolyl)-6,7-dihydro-4H-pyrazolo[4,3-c]pyridin-1-yl]-1-piperidyl]methyl]-1-piperidyl]-N-[4-(3-chloro-4-cyano-phenoxy)cyclohexyl]pyridazine-3-carboxamide] | 0.1 to 1 nM | < 1 nM |  |
| CC(=O)N1CCc2c(c(N3CCCc4cc(-c5cnn(C)c5)c(C(F)F)cc43)nn2C2CCN(C3CC4(CCN(c5ccc(C(=O)N[C@H]6CC[C@H](Oc7ccc(C#N)c(Cl)c7)CC6)nn5)CC4)C3)CC2)C1 [Compound 176, 6-[2-[4-[5-acetyl-3-[7-(difluoromethyl)-6-(1-methylpyrazol-4-yl)-3,4-dihydro-2H-quinolin-1-yl]-6,7-dihydro-4H-pyrazolo[4,3-c]pyridin-1-yl]-1-piperidyl]-7-azaspiro[3.5]nonan-7-yl]-N-[4-(3-chloro-4-cyano-phenoxy)cyclohexyl]pyridazine-3-carboxamide] | 0.1 to 1 nM | < 1 nM |  |
| CC(=O)N1CCc2c(c(N3CCCc4cc(-c5cnn(C)c5)c(C(F)F)cc43)nn2[C@H]2CC[C@@H](C3CCC4(CC3)CN(c3ccc(C(=O)N[C@H]5CC[C@H](Oc6ccc(C#N)c(Cl)c6)CC5)nn3)C4)CC2)C1 [Compound 242, 6-[7-[4-[5-acetyl-3-[7-(difluoromethyl)-6-(1-methylpyrazol-4-yl)-3,4-dihydro-2H-quinolin-1-yl]-6,7-dihydro-4H-pyrazolo[4,3-c]pyridin-1-yl]cyclohexyl]-2-azaspiro[3.5]nonan-2-yl]-N-[4-(3-chloro-4-cyano-phenoxy)cyclohexyl]pyridazine-3-carboxamide] | 0.1 to 1 nM | < 1 nM |  |
| CC(=O)N1CCc2c(c(N3CCCc4cc(-c5cnn(C)c5)c(C(F)F)cc43)nn2CC2CC3(CCN(c4ccc(C(=O)N[C@H]5CC[C@H](Oc6ccc(C#N)c(Cl)c6)CC5)nn4)CC3)C2)C1 [Compound 130, 6-[2-[[5-acetyl-3-[7-(difluoromethyl)-6-(1-methylpyrazol-4-yl)-3,4-dihydro-2H-quinolin-1-yl]-6,7-dihydro-4H-pyrazolo[4,3-c]pyridin-1-yl]methyl]-7-azaspiro[3.5]nonan-7-yl]-N-[4-(3-chloro-4-cyano-phenoxy)cyclohexyl]pyridazine-3-carboxamide] | 0.1 to 1 nM | > 100 nM |  |
| COC(=O)N1c2ccc3c(nc(Cc4ccccc4)n3[C@H]3CCC[C@H](CN4CCN(c5ccc(C(=O)N[C@H]6CC[C@H](Oc7ccc(C#N)c(Cl)c7)CC6)nn5)CC4)C3)c2CC[C@@H]1C [Compound 232, methyl (7S)-2-benzyl-3-[(1S,3S)-3-[[4-[6-[[4-(3-chloro-4-cyano-phenoxy)cyclohexyl]carbamoyl]pyridazin-3-yl]piperazin-1-yl]methyl]cyclohexyl]-7-methyl-8,9-dihydro-7H-imidazo[4,5-f]quinoline-6-carboxylate] | 1 to 100 nM | 1 to 10 nM |  |
| CC(=O)N1CCc2c(c(N3CCCc4cc(-c5ccc(CCC6CCN(c7ccc(C(=O)N[C@H]8CC[C@H](Oc9ccc(C#N)c(Cl)c9)CC8)nn7)CC6)cc5)c(C(F)F)cc43)nn2C2CCOCC2)C1 [Compound 154, 6-[4-[2-[4-[1-(5-acetyl-1-tetrahydropyran-4-yl-6,7-dihydro-4H-pyrazolo[4,3-c]pyridin-3-yl)-7-(difluoromethyl)-3,4-dihydro-2H-quinolin-6-yl]phenyl]ethyl]-1-piperidyl]-N-[4-(3-chloro-4-cyano-phenoxy)cyclohexyl]pyridazine-3-carboxamide] | 0.1 to 1 nM | < 1 nM |  |
| CC(=O)N1CCc2c(c(-c3cccc4cc(C#N)ncc34)nn2C2CCN(CC3CCN(c4ccc(C(=O)N[C@H]5CC[C@H](Oc6ccc(C#N)c(Cl)c6)CC5)nn4)CC3)CC2)C1 [Compound 121, 6-[4-[[4-[5-acetyl-3-(3-cyano-8-isoquinolyl)-6,7-dihydro-4H-pyrazolo[4,3-c]pyridin-1-yl]-1-piperidyl]methyl]-1-piperidyl]-N-[4-(3-chloro-4-cyano-phenoxy)cyclohexyl]pyridazine-3-carboxamide] | 0.1 to 1 nM | < 1 nM |  |
| CC(=O)N1CCc2c(c(N3CCCc4cc(-c5cscn5)c(C(F)F)cc43)nn2C2CCN(CC3CCN(c4ccc(C(=O)N[C@H]5CC[C@H](Oc6ccc(C#N)c(Cl)c6)CC5)nn4)CC3)CC2)C1 [Compound 253, 6-[4-[[4-[5-acetyl-3-[7-(difluoromethyl)-6-thiazol-4-yl-3,4-dihydro-2H-quinolin-1-yl]-6,7-dihydro-4H-pyrazolo[4,3-c]pyridin-1-yl]-1-piperidyl]methyl]-1-piperidyl]-N-[4-(3-chloro-4-cyano-phenoxy)cyclohexyl] pyridazine-3-carboxamide] | ≤ 0.1 nM | < 1 nM |  |

Continued, in another order:

| IC50 (VCaP cells) | EC50 (AR / CBP ternary complex; [1]) | Compound | EC50 (AR / CBP ternary complex; read-out: Average Ternary Complex, treated 1.5 hours, rabbit CBP or p300 antibody detection) |
| --- | --- | --- | --- |
| ≤ 0.1 nM | < 1 nM | CO[C@@H]1CN(c2ccc(C(=O)N[C@H]3CC[C@H](Oc4ccc(C#N)c(Cl)c4)CC3)nn2)CC[C@@H]1CN1CCC(n2nc(N3CCCc4cc(-c5cnn(C)c5)c(C(F)F)cc43)c3c2CCN(C(C)=O)C3)CC1 [Compound 219, 6-[4-[[4-[5-acetyl-3-[7-(difluoromethyl)-6-(1-methylpyrazol-4-yl)-3,4-dihydro-2H-quinolin-1-yl]-6,7-dihydro-4H-pyrazolo[4,3-c]pyridin-1-yl]-1-piperidyl]methyl]-3-methoxy-1-piperidyl]-N-[4-(3-chloro-4-cyano-phenoxy)cyclohexyl] pyridazine-3-carboxamide] |  |
| ≤ 0.1 nM | < 1 nM | CC(=O)N1CCc2c(c(N3CCCc4cc(C)ncc43)nn2C2CCN(CC3CCN(c4ccc(C(=O)N[C@H]5CC[C@H](Oc6ccc(C#N)c(Cl)c6)CC5)nn4)CC3)CC2)C1 [Compound 107, 6-[4-[[4-[5-acetyl-3-(6-methyl-3,4-dihydro-2H-1,7-naphthyridin-1-yl)-6,7-dihydro-4H-pyrazolo[4,3-c]pyridin-1-yl]-1-piperidyl]methyl]-1-piperidyl]-N-[4-(3-chloro-4-cyano-phenoxy)cyclohexyl]pyridazine-3-carboxamide] |  |
| ≤ 0.1 nM | < 1 nM | CC(=O)N1CCc2c(c(N3CCCc4cc(-c5cnn(C)c5)c(C)cc43)nn2C2CCN(C[C@H]3[C@H](C)CN(c4ccc(C(=O)N[C@H]5CC[C@H](Oc6ccc(C#N)c(Cl)c6)CC5)nn4)C[C@@H]3C)CC2)C1 [Compound 281] |  |
| ≤ 0.1 nM | < 1 nM | CC(=O)N1CCc2c(c(N3CCCc4cc(C#N)c(C(F)F)cc43)nn2C2CCN(CC3CCN(c4ccc(C(=O)N[C@H]5CC[C@H](Oc6ccc(C#N)c(Cl)c6)CC5)nn4)CC3(C)C)CC2)C1 (stereo partly shown) [Compound 283, 6-[4-[[4-[5-acetyl-3-[6-cyano-7-(difluoromethyl)-3,4-dihydro-2H-quinolin-1-yl]-6,7-dihydro-4H-pyrazolo[4,3-c]pyridin-1-yl]-1-piperidyl]methyl]-3,3-dimethyl-1-piperidyl]-N-[4-(3-chloro-4-cyano-phenoxy)cyclohexyl]pyridazine-3-carboxamide] |  |
| ≤ 0.1 nM | < 1 nM | CC(=O)N1CCc2c(c(-c3cccc4cc(-c5cnn(C)c5)ncc34)nn2C2CCN(CC3CCN(c4ccc(C(=O)N[C@H]5CC[C@H](Oc6ccc(C#N)c(Cl)c6)CC5)nn4)CC3)CC2)C1 [Compound 32, 6-[4-[[4-[5-acetyl-3-[3-(1-methylpyrazol-4-yl)-8-isoquinolyl]-6,7-dihydro-4H-pyrazolo[4,3-c]pyridin-1-yl]-1-piperidyl]methyl]-1-piperidyl]-N-[4-(3-chloro-4-cyano-phenoxy)cyclohexyl]pyridazine-3-carboxamide] |  |
| ≤ 0.1 nM | < 1 nM | CC(=O)N1CCc2c(c(N3CCCc4cc(-c5cnn(C)c5)c(C(F)F)cc43)nn2[C@H]2CC[C@@H](OC3CCN(c4ccc(C(=O)N[C@H]5CC[C@H](Oc6ccc(C#N)c(Cl)c6)CC5)nn4)CC3)CC2)C1 [Compound 204, 6-[4-[4-[5-acetyl-3-[7-(difluoromethyl)-6-(1-methylpyrazol-4-yl)-3,4-dihydro-2H-quinolin-1-yl]-6,7-dihydro-4H-pyrazolo[4,3-c]pyridin-1-yl]cyclohexoxy]-1-piperidyl]-N-[4-(3-chloro-4-cyano-phenoxy)cyclohexyl]pyridazine-3-carboxamide] |  |
| ≤ 0.1 nM | < 1 nM | CC(=O)N1CCc2c(c(-c3cccc4cc(-c5ccc(CCC6CCN(c7ccc(C(=O)N[C@H]8CC[C@H](Oc9ccc(C#N)c(Cl)c9)CC8)nn7)CC6)nc5)ncc34)nn2C2CCOCC2)C1 [Compound 25, 6-[4-[2-[5-[8-(5-acetyl-1-tetrahydropyran-4-yl-6,7-dihydro-4H-pyrazolo[4,3-c]pyridin-3-yl)-3-isoquinolyl]-2-pyridyl]ethyl]-1-piperidyl]-N-[4-(3-chloro-4-cyano-phenoxy)cyclohexyl]pyridazine-3-carboxamide] |  |
| ≤ 0.1 nM | < 1 nM | CC(=O)N1CCc2c(c(N3CCCc4cc(-c5cnn(C)c5)c(C(F)F)cc43)nn2C2CCN(C[C@H]3[C@H](C)CN(c4ccc(C(=O)N[C@H]5CC[C@H](Oc6ccc(C#N)c(C)c6C)CC5)nn4)C[C@@H]3C)CC2)C1 [Compound 288] |  |
